Reference: publication PMC5632672, “Generation of Persister Cells of Pseudomonas aeruginosa and Staphylococcus aureus by Chemical Treatment and Evaluation of Their Susceptibility to Membrane-Targeting Agents” (Frontiers in Microbiology, 2017)
Values after ≈ are worked out from the molar mass of the structure shown. Read-outs that look alike come from different tables or passages of the source. One block for each compound: values may come before it. Positions of bridges follow the written chain, without caps; N, C: chain ends. Non-standard residues stand in square brackets, D forms with d. Residues, ends and D or L forms follow the SMILES beside them. *: point of attachment. X1 = CC[C@H](C)CCCCC(=O)*; Dab = NCC[C@H](N)C(=O)O

Experiments:
[1] = test system: Pseudomonas aeruginosa ATCC 27853; assay: MIC and MBC by standard microdilution after revival of CCCP-induced persisters
[2] = test system: Staphylococcus aureus ATCC 33591
[3] = test system: Pseudomonas aeruginosa ATCC 27853
[4] = test system: Staphylococcus aureus ATCC 33591; assay: MIC and MBC by standard microdilution after revival of CCCP-induced persisters
[5] = test system: Staphylococcus aureus ATCC 33591; assay: Induction of persistence with CCCP, survival to antibiotic treatment; conditions: S. aureus
[6] = test system: Pseudomonas aeruginosa ATCC 27853; assay: Flow cytometry, oxidoreductase activity with RedoxSensor Green; assay type: cell-based; conditions: P. aeruginosa, 3-h exposure to CCCP 200 μg/mL, Figure 4A
Method: (§1) The metabolic activity of CCCP-induced PCs of P. aeruginosa and S. aureus was also evaluated by determining the oxidoreductase activity through flow cytometry. […] Then, bacterial suspensions were stained with the RedoxSensor^TM Green reagent (RSG) (BacLight^TM RedoxSensor^TM Green Vitality Kit, Thermo Fisher Scientific, Waltham, MA, United States) according to the manufacturer’s instructions. Briefly, 1 mL of the bacterial suspension was incubated with 1 μL (P. aeruginosa) or 0.1 μL (S. aureus) of 1 mM RSG for 10 min at 37°C in the dark. Stained samples were analyzed with a BD Accuri C6 flow cytometer (BD Biosciences, Mountain View, CA, United States) equipped with a 488 nm laser and a 533/30 nm optical filter. Data were collected and analyzed with BD Accuri C6 software (BD Biosciences), and results were plotted as cell counts versus fluorescence intensity.

[7] = test system: Staphylococcus aureus ATCC 33591; assay: as above; assay type: cell-based; conditions: S. aureus, 3-h exposure to CCCP 400 μg/mL, Figure 4B
Method: as §1

[8] = test system: Pseudomonas aeruginosa ATCC 27853; assay: Effect of CCCP on cell viability, CFU counting; conditions: P. aeruginosa stationary-phase cultures, CCCP at concentrations up to 200 μg/mL, 3 h, 37°C, Figure 1
[9] = test system: Staphylococcus aureus ATCC 33591; assay: Effect of CCCP on cell viability, CFU counting; conditions: S. aureus stationary-phase cultures, CCCP at concentrations up to 400 μg/mL, 3 h, 37°C, Figure 1
[10] = test system: Pseudomonas aeruginosa ATCC 27853; assay: Induction of persistence with CCCP, survival to antibiotic treatment; conditions: P. aeruginosa
[11] = test system: Staphylococcus aureus ATCC 33591; assay: Isothermal microcalorimetry, bacterial heat production; conditions: S. aureus stationary-phase culture incubated with CCCP 400 μg/mL, recorded for 24 h, Figure 3
[12] = test system: Pseudomonas aeruginosa ATCC 27853; assay: as above; assay type: cell-based; conditions: P. aeruginosa stationary-phase culture incubated with CCCP 200 μg/mL, recorded for 24 h, Figure 3
[13] = test system: Staphylococcus aureus ATCC 33591; assay type: cell-based; conditions: S. aureus, CCCP 400 μg/mL 3 h, washed, fresh LB
[14] = test system: Pseudomonas aeruginosa ATCC 27853; assay: Revival assay of CCCP-induced persisters; assay type: cell-based; conditions: P. aeruginosa, CCCP 200 μg/mL 3 h, washed, fresh LB
[15] = ATCC27853, read-out: MBC, CCCP-pretreated
[16] = ATCC27853, read-out: MBC, CCCP-untreated
[17] = ATCC33591, 24 h, read-out: MIC, CCCP-untreated
[18] = ATCC33591, read-out: MBC, CCCP-pretreated
[19] = ATCC33591, read-out: MBC, CCCP-untreated
[20] = ATCC33591, read-out: MIC, CCCP-pretreated
[21] = CCCP 200 μg/mL for 3 h, then meropenem 10 μg/mL 3 h, Figure 2C
[22] = CCCP 400 μg/mL for 3 h, then gentamicin 10 μg/mL 3 h, Figure 2F

Compound: C[C@@H](O)[C@H]1C(=O)N2C(C(=O)O)=C(S[C@@H]3CN[C@H](C(=O)N(C)C)C3)[C@H](C)[C@H]12 [Meropenem, meropenem]
MBC [1, 15]: 10 µg/mL (≈ 26.1 µM) | MBC [1, 16]: 10 µg/mL (≈ 26.1 µM)

Compound: CCCCCCCCCC(=O)N[C@@H](Cc1c[nH]c2ccccc12)C(=O)N[C@H](CC(N)=O)C(=O)N[C@@H](CC(=O)O)C(=O)N[C@@H]1C(=O)NCC(=O)N[C@@H](CCCN)C(=O)N[C@@H](CC(=O)O)C(=O)N[C@H](C)C(=O)N[C@@H](CC(=O)O)C(=O)NCC(=O)N[C@H](CO)C(=O)N[C@@H]([C@H](C)CC(=O)O)C(=O)N[C@@H](CC(=O)c2ccccc2N)C(=O)O[C@@H]1C [Daptomycin]
MBC, S. aureus CCCP-pretreated ([2]; ATCC 33591, 3 h): 112 µM (≈ 182 µg/mL) | MBC, S. aureus CCCP-untreated ([2]; ATCC 33591, 3 h): 7 µM (≈ 11.3 µg/mL) | fold higher concentration required to kill CCCP-induced persisters than untreated bacteria (MBC) ([2]; S. aureus): 16 fold | bactericidal concentration against persisters relative to those of the tested AMPs ([2]; S. aureus CCCP-pretreated, Figure 6B): 32 to 64 fold

Compound: CC[C@H](C)CCCCC(=O)N[C@@H](CCN)C(=O)N[C@H](C(=O)N[C@@H](CCN)C(=O)N[C@H]1CCNC(=O)[C@H]([C@@H](C)O)NC(=O)[C@H](CCN)NC(=O)[C@H](CCN)NC(=O)[C@H](CC(C)C)NC(=O)[C@@H](CC(C)C)NC(=O)[C@H](CCN)NC1=O)[C@@H](C)O [Colistin, colistin] (X1-[Dab]T[Dab][Dab][Dab][dL]L[Dab][Dab]T; lactam 4-C (inferred); N-terminus assumed)
concentration eradicating persister-enriched cultures to the limit of detection (complete killing) [3]: 3.5 µM | MBC, P. aeruginosa CCCP-pretreated ([3]; ATCC 27853, 3 h): 3.5 µM (≈ 4.09 µg/mL) | MBC, P. aeruginosa CCCP-untreated ([3]; ATCC 27853, 3 h): 1.75 µM (≈ 2.05 µg/mL) | fold increase in MBC against CCCP-pretreated vs CCCP-untreated bacteria ([3]; P. aeruginosa): 2 fold

MIC [4, 17]: 0.5 µg/mL (≈ 1.38 µM) | MIC [4, 20]: 0.5 µg/mL (≈ 1.38 µM)
Compound: C[C@H]1COc2c(N3CCN(C)CC3)c(F)cc3c(=O)c(C(=O)O)cn1c23 [Levofloxacin, levofloxacin]
MBC [4, 18]: 0.5 µg/mL (≈ 1.38 µM) | MBC [4, 19]: 0.5 µg/mL (≈ 1.38 µM) | percentage of initial inoculum tolerating antibiotic treatment, no CCCP pretreatment ([5]; levofloxacin 2.5 μg/mL, 3 h, SPB/LB, Figure 2D): approximately 0.5%

MIC [4, 17]: 20 µg/mL (≈ 41.9 µM) | MIC [4, 20]: 20 µg/mL (≈ 41.9 µM)
Compound: CNC(C)C1CCC(N)C(OC2C(N)CC(N)C(OC3OCC(C)(O)C(NC)C3O)C2O)O1 (centres unmarked) [Gentamicin]
MBC [4, 18]: 40 µg/mL (≈ 83.8 µM) | MBC [4, 19]: 40 µg/mL (≈ 83.8 µM)

Compound: N#CC(C#N)=NNc1cccc(Cl)c1 [CCCP, Carbonyl cyanide m-chlorophenylhydrazone]
reduction in RSG fluorescence vs untreated control [6]: approximately three | reduction in RSG fluorescence vs untreated control [7]: approximately three | effect on cell viability [8]: did not exert a significant killing effect | effect on cell viability [9]: only a minor effect on cell viability | fold increase in the number of persister-like cells vs untreated control ([10]; CCCP 200 μg/mL for 3 h, then ciprofloxacin 5 μg/mL 3 h, Figure 2A): 5000 fold | fold increase in the percentage of bacteria tolerant to meropenem [10, 21]: 200 fold | percentage of starting bacterial population tolerant to meropenem after CCCP pretreatment [10, 21]: 35% | basal heat production [11]: < 5 μWh | fold increase in survival to gentamicin [5, 22]: approximately 500 times | percentage of cells becoming persisters (surviving gentamicin) after CCCP pretreatment [5, 22]: 20% | percentage of initial population surviving levofloxacin exposure after CCCP pretreatment ([5]; CCCP 400 μg/mL for 3 h, then levofloxacin 2.5 μg/mL 3 h, Figure 2D): approximately 60% | basal heat production [12]: < 5 μWh | lag phase before resuming replication at a normal rate, optical density ([13]; OD600, Figure 5D): approximately 1 h | delay in heat production after CCCP removal (time of maximum heat production) ([13]; microcalorimetry, Figure 5C): 1 h | lag phase before resuming replication at a normal rate, optical density ([14]; OD600, Figure 5B): approximately 1 h | time lag in heat production after CCCP removal (time of maximum heat production) ([14]; microcalorimetry, Figure 5A): 1.5 h

Compound: O=C(O)c1cn(C2CC2)c2cc(N3CCNCC3)c(F)cc2c1=O [Ciprofloxacin]
percentage of stationary-phase culture surviving antibiotic exposure, no CCCP pretreatment ([10]; ciprofloxacin 5 μg/mL, 3 h, SPB/LB, Figure 2A): less than 0.01% | MIC ([1]; ATCC27853, 24 h, read-out: MIC, CCCP-untreated): 0.5 µg/mL (≈ 1.51 µM) | MBC [1, 15]: 1 µg/mL (≈ 3.02 µM) | MBC [1, 16]: 1 µg/mL (≈ 3.02 µM) | MIC ([1]; ATCC27853, read-out: MIC, CCCP-pretreated): 0.5 µg/mL (≈ 1.51 µM)

Compound: [WKKIRVRLSA]2-K-8Aoc-NH2 [Den-SB056]
MBC, P. aeruginosa CCCP-pretreated ([3]; persister-enriched cultures (CCCP 200 μg/mL, 3 h), SPB/LB, 1 × 10^6 CFU/mL, 3 h, 37°C, CFU counting): 1.75 µM | MBC, P. aeruginosa CCCP-untreated ([3]; stationary-phase cultures, CCCP-untreated, SPB/LB, 1 × 10^6 CFU/mL, 3 h, 37°C, CFU counting): 0.87 µM | MBC, S. aureus CCCP-pretreated ([2]; persister-enriched cultures (CCCP 400 μg/mL, 3 h), SPB/LB (daptomycin: deionized water with 1% LB and 75 μg/mL CaCl2), 1 × 10^6 CFU/mL, 3 h, 37°C, CFU counting): 1.75 µM | MBC, S. aureus CCCP-untreated ([2]; stationary-phase cultures, CCCP-untreated, SPB/LB (daptomycin: deionized water with 1% LB and 75 μg/mL CaCl2), 1 × 10^6 CFU/mL, 3 h, 37°C, CFU counting): 1.75 µM
